≈ marks a conversion by molar mass, not a printed value. Entries after “also recorded” stand apart in the source; their conditions may differ. Structures can show the parent of a compound that is named as a salt.
Tested on: Bugula neritina larvae
Test: Bioassay against bryozoan larvae
Format: in vivo
Details: crude rank, best (1) to worst (8)
Description: Bugula neritina (Phylum Bryozoa, Class Gymnolaemata, Order Cheilostomatida) is a cosmopolitan species of bryozoan, commonly found in most marine fouling communities. The larvae are brooded in ovicells found on the stem of the colonies. When released, the larva will settle quickly on most surfaces, within a few minutes. At 24° C., the settled larvae forms the one-cell ancestrula, and after 48 hours, the lophophore has developed and extended for feeding.
Adult colonies of Bugula neritina were collected from fouling communities growing on the submerged pontoons on a floating fish farm located off Changi, Singapore. Adult animals were maintained in the open-circulation aquarium at St John's island marine laboratory, Singapore. The adults were kept in total darkness for 24 hours. On exposure to light, larvae were released after half an hour. […] Because the larvae will settle quickly, larvae were pipetted directly into test wells in 1 ml of seawater using a graduated glass pipette.
4 replicates were done for each treatment. After 24 hours, larvae were scored as settled, swimming or dead/deformed. The assay plates were usually kept for another 24 hours and checked again, to ascertain that the settled larvae had developed into viable colonies with lophophores. Two trials were repeated for each compound.
Bioassays were carried out using the method described above, in July 2003 during the peak spawning season for Bugula.

Row | SMILES | Prevention of settlement of Bugula larvae
1 | CN1CCN(C(c2ccccc2)c2ccccc2)CC1 [CYZ, Cyclizine hydrochloride] | 5
2 | CCCCCCCCCC(=O)OC1(c2ccc(Cl)cc2)CCN(CCCC(=O)c2ccc(F)cc2)CC1 [HDL, haloperidol decanoate] | 4
3 | CN(C)C(=O)C(CCN1CCC(O)(c2ccc(Cl)cc2)CC1)(c1ccccc1)c1ccccc1 [IMD, Loperamide hydrochloride] | 7
4 | CN1CCN(CCCN2c3ccccc3Sc3ccc(Cl)cc32)CC1 [PCZ, prochlorperazine maleate] | 2

Tested on: biofilm bacteria (strains 4, 9, 14, 20, 27, 28)
Test: Effect of pharmaceuticals on adhesion of bacteria to plastic / biofilm formation on NTC and TC plates
Format: cell-based, marine bacteria isolated from Singapore fouling communities
Details: 25 ug ml−1; NTC = untreated polystyrene, TC = tissue-culture treated; strains 4, 9, 14, 20, 27, 28
Description: Commercial forms of pharmaceuticals were used as previously described. […] These samples were sonicated for at least 1 min and these fine suspensions were used as initial stock solutions.
For studies of bacterial adhesion, the pharmaceuticals were first sterilized by soaking in absolute alcohol (Merck) for half an hour. Ethanol was removed by air-drying with air passed through 0.25 μm pore size syringe filter (Sartorius, Germany). Stock solutions were concentrations of 100 μg ml−1 in SDI.
The effect of pharmaceuticals on bacterial adhesion was analyzed using a modified microplate method adapted from Shea and Williamson (1990). This method employs a combination of staining attached bacteria with crystal violet, releasing the stain with sodium desoxycholate, and measuring the resulting absorbance of the crystal violet.
Detailed results for six selected strains are presented here: strains 4, 9, 14, 20, 27, 28. The bacterial strains were grown in Marine Broth (Pronadisa, Spain) overnight, in the dark, at 28° C. on a rotary shaker (150 rpm) in 5 ml centrifuge tubes (Falcon). Cells were harvested by centrifugation (1500×g, 10 min) and resuspended in sterile seawater (SSW). SSW was prepared by filtering seawater through a 0.2 μm pore size filter (Sartorius) followed by autoclaving. The cells were centrifuged and resuspended once more in SSW. The concentration of resuspended cells was adjusted to A600=1.0 using a spectrophotometer (Beckman DU530, USA).
Flat bottom 96 well polystyrene (hydrophobic, Falcon 351172) (=NTC) and tissue-culture treated polystyrene (hydrophilic, Falcon 353072) (=TC) microplates were used in the analyses. Each test was performed in triplicate. Two sets of experiments were conducted. […] For the control and blank wells, 25 ul of SDI were added. For wells containing pharmaceuticals, 25 ul of the respective pharmaceutical at a concentration of 100 ug ml−1 were added. This was immediately followed by the addition of 75 ul of bacterial suspension. To blanks were added 75 ul of SSW.
The bacterial cells in suspension were allowed to attach for 2 h at 28° C. Unattached cells were removed by aspiration using a plate washer (Tecan, Austria) and wells were rinsed three times with 200 ul of SSW each time. The attached cells were stained with 200 ul of crystal violet solution (0.1% w/v in deionized water) in each well for 5 min. After removing the stain using the plate washer, the wells were rinsed twice with 300 ul of SDI each time. Sodium desoxycholate (200 ul) solution (2% w/v in deionized water) was added to each well to extract the crystal violet from the attached stained cells for 10 min. The absorbance of the crystal violet was read at 590 nm using a microplate reader (Sunrise, Tecan, Austria).
Results of the adhesion assay were obtained by the difference in absorbance readings between wells containing bacterial cells and the mean of absorbance of those containing the SSW only. The effect of the pharmaceuticals on bacterial adhesion was determined by the examining the differences in absorbance between the wells containing the pharmaceuticals+bacteria and the bacteria. The significance was compared using T-test.

Row | SMILES | Effect on formation of bacterial biofilms on NTC and TC plates
5 | CCCCCCCCCC(=O)OC1(c2ccc(Cl)cc2)CCN(CCCC(=O)c2ccc(F)cc2)CC1 [HDL, haloperidol decanoate] | no significant difference from control; also recorded: On TC, there was a slight reduction in biofilm formation for strain 28 (p<0.1); also recorded: No significant reduction in biofilm formation was observed for most strains, except for strain 28, where there appears to be a slight effect (0.05<p<0.1)
6 | CN1CCN(CCCN2c3ccccc3Sc3ccc(Cl)cc32)CC1 [PCZ, prochlorperazine maleate] | reduced biofilm formation only for strains 4 and 27; also recorded: active against strain 4, and a slight effect on strain 27

Same assay, conditions: 25 ug ml−1; NTC = untreated polystyrene, TC = tissue-culture treated; strains 4, 9, 14, 20, 27, 28; hydrochloride

Row | SMILES | Effect on formation of bacterial biofilms on NTC and TC plates
7 | CN1CCN(C(c2ccccc2)c2ccccc2)CC1 [CYZ, Cyclizine hydrochloride] | significantly more bacteria adhesion for strain 9; also recorded: No significant reduction in biofilm formation
8 | CN(C)C(=O)C(CCN1CCC(O)(c2ccc(Cl)cc2)CC1)(c1ccccc1)c1ccccc1 [IMD, Loperamide hydrochloride] | On NTC, there was a slight reduction in strain 28; also recorded: reduction of biofilm growth in strain 28 on NTC but not on TC

Same assay, conditions: crude rank, best (1) to worst (8)

Row | SMILES | Prevention of formation of biofilm
9 | CN1CCN(C(c2ccccc2)c2ccccc2)CC1 [CYZ, Cyclizine hydrochloride] | 8
10 | CCCCCCCCCC(=O)OC1(c2ccc(Cl)cc2)CCN(CCCC(=O)c2ccc(F)cc2)CC1 [HDL, haloperidol decanoate] | 6
11 | CN(C)C(=O)C(CCN1CCC(O)(c2ccc(Cl)cc2)CC1)(c1ccccc1)c1ccccc1 [IMD, Loperamide hydrochloride] | 7
12 | CN1CCN(CCCN2c3ccccc3Sc3ccc(Cl)cc32)CC1 [PCZ, prochlorperazine maleate] | 4

Tested on: Balanus amphitrite stage II naupliar larvae
Test: not given
Details: Balanus amphitrite, in vivo
Description: (§1) Pharmaceuticals from the respective manufacturers were treated in the following way. A pill containing a known amount of active ingredient (as stated in product information) was ground in a mortar and pestle and a suspension of 2 mg ml^−1 generated in de-ionized water. This stock solution is stored at −20° C. in 4 ml amber screw cap vials. For the bioassays, 250 ul of stock solution is added to 10 ml of 1 um filtered seawater. This suspension was then sonicated for 10 minutes. Serial dilutions of this 50 μg ml^−1 seawater solution, or suspension, with seawater was done to generate the required range of concentrations.
Stage II naupliar larvae used in tests were obtained from Balanus amphitrite adults collected from inter-tidal rock walls at Kranji mangrove, Singapore. Larvae were collected from a container of adults by attraction to a point source of light and transferred to 500 ml of fresh seawater. Next, larvae were re-concentrated with a fiber optic light and added to assays.
Duplicate assays were conducted in 2 ml micro-centrifuge tubes (Axygen MCT-200-C) in 1.5 ml of filtered seawater for 22 to 24 hours. The assays were repeated for confirmation. There were four controls (vehicle only, 0 μg ml^−1), and 2 tubes of each for each test concentration. The assay was initiated by addition of barnacle nauplii in 50 to 100 μl of seawater.
After 22 to 24 hours of incubation at 25-27° C., solutions containing test animals were transferred to a Bogorov tray and scored as living or dead. Moribund larvae were scored as dead. Results were confirmed by repeating the assay. […] If data were not appropriate for probit analysis, the LC50 was estimated from graphed data.

Row | SMILES | LD50 [ng/mL]
13 | CCCCCCCCCC(=O)OC1(c2ccc(Cl)cc2)CCN(CCCC(=O)c2ccc(F)cc2)CC1 [HDL, haloperidol decanoate] | 252.68

Same assay, conditions: barnacle nauplii, 22 to 24 hours; concentration that caused 50% mortality

Row | SMILES | LD50 [ng/mL]
14 | CN1CCN(C(c2ccccc2)c2ccccc2)CC1 [CYZ, Cyclizine hydrochloride] | 61.05
15 | CN(C)C(=O)C(CCN1CCC(O)(c2ccc(Cl)cc2)CC1)(c1ccccc1)c1ccccc1 [IMD, Loperamide hydrochloride] | 241.34
16 | CN1CCN(CCCN2c3ccccc3Sc3ccc(Cl)cc32)CC1 [PCZ, prochlorperazine maleate] | 3.54

Same assay, conditions: in vivo

Row | SMILES | Toxicity to barnacle nauplii and cyprids
17 | CN1CCN(C(c2ccccc2)c2ccccc2)CC1 [CYZ, Cyclizine hydrochloride] | toxic to barnacle nauplii and cyprids
18 | CCCCCCCCCC(=O)OC1(c2ccc(Cl)cc2)CCN(CCCC(=O)c2ccc(F)cc2)CC1 [HDL, haloperidol decanoate] | toxic to barnacle nauplii and cyprids
19 | CN1CCN(CCCN2c3ccccc3Sc3ccc(Cl)cc32)CC1 [PCZ, prochlorperazine maleate] | very toxic to nauplii and cyprids

Tested on: Balanus amphitrite cyprids
Test: whole plant or invertebrate
Details: Amphibalanus amphitrite, 24 h, read-out: ED50
Description: as §1
This method is now standard practice for many antifouling screening of novel compounds.
Barnacle larvae from field-collected adults were reared on an algal mixture of 1:2:2 v/v of Rhodomonas salina, Tetraselmis suecica and Chaetoceros muelleri at 25° C., at approximately 5×10^5 cells per ml density. On this regime, larvae metamorphose to cyprids in 5 days.
Test solutions were made up to twice the required final concentration. 1 ml of test solution was added into each well, and cyprids were transferred into each well in 1 ml of seawater. Assays were done in triplicate. After 24 hours, larvae that had attached and metamorphosed were enumerated and the result expressed as percentage settlement. Larvae not attached were scored as not settled.
The Therapeutic Ratio, or LC50/EC50, is a way of assessing the effectiveness of the compound in relation to its toxicity. […] LC50 and EC50 estimates and the therapeutic ratio should be considered as working values providing an estimation of potency, rather than as absolutes.

Row | SMILES | IC50 [µg/mL]
20 | CN1CCN(C(c2ccccc2)c2ccccc2)CC1 [CYZ, Cyclizine hydrochloride] | 0.156
21 | CCCCCCCCCC(=O)OC1(c2ccc(Cl)cc2)CCN(CCCC(=O)c2ccc(F)cc2)CC1 [HDL, haloperidol decanoate] | 0.119 (≈ 0.225 µM)
22 | CN(C)C(=O)C(CCN1CCC(O)(c2ccc(Cl)cc2)CC1)(c1ccccc1)c1ccccc1 [IMD, Loperamide hydrochloride] | > 5
23 | CN1CCN(CCCN2c3ccccc3Sc3ccc(Cl)cc32)CC1 [PCZ, prochlorperazine maleate] | 0.174

Same assay, conditions: crude rank, best (1) to worst (8)

Row | SMILES | Prevention of settlement of barnacle cyprids
24 | CN1CCN(C(c2ccccc2)c2ccccc2)CC1 [CYZ, Cyclizine hydrochloride] | 4
25 | CCCCCCCCCC(=O)OC1(c2ccc(Cl)cc2)CCN(CCCC(=O)c2ccc(F)cc2)CC1 [HDL, haloperidol decanoate] | 3
26 | CN(C)C(=O)C(CCN1CCC(O)(c2ccc(Cl)cc2)CC1)(c1ccccc1)c1ccccc1 [IMD, Loperamide hydrochloride] | 8
27 | CN1CCN(CCCN2c3ccccc3Sc3ccc(Cl)cc32)CC1 [PCZ, prochlorperazine maleate] | 2

Same assay, conditions: in words

Row | SMILES | Effect on settlement of cyprids
28 | CN(C)C(=O)C(CCN1CCC(O)(c2ccc(Cl)cc2)CC1)(c1ccccc1)c1ccccc1 [IMD, Loperamide hydrochloride] | not effective against cyprids
